From the supplement of paper PMC7695840
Structures can show the parent of a compound that is named as a salt.

Key:
[1] = test system: Staphylococcus aureus MW2 delta-mecA (mecA-); assay: IC50 (growth, competition assay); conditions: cefoxitin: subinhibitory
Procedure, shortened: (§1)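 Two fluorescent S. aureus MW2 strains, one carrying and one lacking the resistance gene, were pre-induced, mixed 1:1 and grown unshaken in LB in 1536-well plates for 20 h at 37 °C and 90% humidity with a subinhibitory drug dose set each day. Compounds were tested on five- or nine-point 2-fold gradients in two dye-swapped replicates. DsRed (540/590) and GFP (485/520) signals were scaled per plate between the medians of single-strain controls, and No Treatment was then set to 0.5. For each strain, IC50 was taken as the dose that halved the No Treatment signal, or else the maximal signal.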

[2] = test system: Staphylococcus aureus MW2 (mecA+); assay: IC50 (growth, competition assay); conditions: cefoxitin: subinhibitory
Procedure, shortened: as §1

| SMILES | IC50 ([1]; fluorescent label: DsRed) | IC50 ([1]; fluorescent label: GFP) | IC50 ([2]; fluorescent label: DsRed) | IC50 ([2]; fluorescent label: GFP) |
| --- | --- | --- | --- | --- |
| CCN(CC)CCOc1ccc(C(=C(Cl)c2ccccc2)c2ccccc2)cc1 [CLOMID] | 15.5 µM | < 9.85 µM | 23.7 µM | 34.5 µM |
| CC(=O)OCC(=O)[C@H]1CC[C@H]2[C@@H]3CCC4=CC(=O)CC[C@]4(C)[C@H]3CC[C@]12C [PERCOTEN] | 26.6 µM | > 150 µM | 144 µM | 62.6 µM |
| CC(C)c1ccc2c(c1)CC[C@H]1[C@](C)(CN)CCC[C@]21C [18-AMINOABIETA-8,11,13-TRIENE SULFATE] | 55.7 µM | 55.8 µM | 62.5 µM | 79.2 µM |
| OCCN1CCN(CCCN2c3ccccc3Sc3ccc(Cl)cc32)CC1 [TRILAFON] | 18.4 µM | 15.8 µM | 57 µM | 52.6 µM |
| O=C(O)c1ccc(N2C(=O)/C(=C\c3ccc(-c4ccc([N+](=O)[O-])cc4)o3)C=C2c2ccccc2)cc1 [4E1RCat] | 18 µM | < 9.85 µM | 54.5 µM | 78.7 µM |
| NC(=O)c1cnccn1 [TEBRAZID] | 18.2 µM | 20.3 µM | 26.7 µM | 35.6 µM |
| CCOC(=O)c1ccc(N2NC(=O)C(=Cc3ccc([N+](=O)[O-])o3)C2=O)cc1 [PYR-41] | 24.1 µM | 19 µM | 58.8 µM | 79.3 µM |
| CC[C@H]1OC(=O)[C@H](C)[C@@H](O[C@H]2C[C@@](C)(OC)[C@@H](O)[C@H](C)O2)[C@H](C)[C@@H](O[C@@H]2O[C@H](C)C[C@H](N(C)C)[C@H]2O)[C@](C)(O)C[C@@H](C)CN(C)[C@H](C)[C@@H](O)[C@]1(C)O [Azithromycin (Zithromax)] | 0.827 µM | 1.29 µM | 22.8 µM | 15.7 µM |
| CCOc1ccc2ccccc2c1C(=O)N[C@@H]1C(=O)N2[C@@H]1SC(C)(C)[C@@H]2C(=O)O [NALLPEN] | < 9.85 µM | < 9.85 µM | < 9.85 µM | < 9.85 µM |
| C=C1C(=O)[C@]23[C@H](O)[C@H]1CC[C@H]2[C@@]12CO[C@]3(O)[C@@H](O)[C@@H]1C(C)(C)CC[C@@H]2O [Oridonin (Isodonol)] | 13.7 µM | < 9.85 µM | 29.5 µM | 51.5 µM |
| O=C(O)Cc1cccc(OCCCN(Cc2cccc(C(F)(F)F)c2Cl)CC(c2ccccc2)c2ccccc2)c1 [GW3965 HCl] | < 9.85 µM | < 9.85 µM | < 9.85 µM | < 9.85 µM |
| CN[C@H]1CC[C@@H](c2ccc(Cl)c(Cl)c2)c2ccccc21 [Sertraline HCl] | 12 µM | < 9.85 µM | 94.5 µM | 111 µM |
| Oc1c(Cl)cc(Cl)c2cccnc12 [CAPITROL] | < 9.85 µM | < 9.85 µM | 17.9 µM | 30 µM |
| CCCCCCCCCCCCCCCCOP(=O)([O-])OCC[N+](C)(C)C [Miltefosine (Hexadecylphosphocholine)] | 36.2 µM | 56.8 µM | > 150 µM | > 150 µM |
| C[C@@H](O)[C@H]1C(=O)N2C(C(=O)O)=C(S[C@@H]3CN[C@H](C(=O)N(C)C)C3)[C@H](C)[C@H]12 [MERREM] | 16 µM | 11.8 µM | 89.8 µM | 98.4 µM |
| O=C(O)c1cn(C2CC2)c2cc(N3CCNCC3)c(F)cc2c1=O [Ciprofloxacin (Cipro)] | 0.863 µM | 1.17 µM | 3.52 µM | 3.52 µM |
| CO[C@H]1/C=C/O[C@@]2(C)Oc3c(C)c(O)c4c(O)c(c5c(nc6cc(C)ccn65)c4c3C2=O)NC(=O)/C(C)=C\C=C\[C@H](C)[C@H](O)[C@@H](C)[C@@H](O)[C@@H](C)[C@H](OC(C)=O)[C@@H]1C [Rifaximin (Xifaxan)] | < 0.498 µM | < 0.498 µM | < 0.498 µM | < 0.498 µM |
| C#CCCCCCCCCCCCC(O)CC(O)CO.C=CCCCCCCCCCCCC(O)CC(O)CO (stereo not drawn) | < 9.85 µM | < 9.85 µM | 16.4 µM | 26.3 µM |
| O=c1c(O)c(-c2ccc(O)c(O)c2)oc2cc(O)cc(O)c12 [Quercetin dihydrate (Sophoretin)] | 18.7 µM | 11.1 µM | 58.2 µM | 53.4 µM |
| COC1=CC(=O)C(O)=C/C1=C\C=C\c1ccccc1 [OBTUSAQUINONE] | < 9.85 µM | < 9.85 µM | < 9.85 µM | < 9.85 µM |
| CCOC(=O)C1=C(C)NC(C)=C(C(=O)OC)C1c1cccc(Cl)c1Cl (stereo not drawn) [PLENDIL] | < 9.85 µM | < 9.85 µM | 29.9 µM | 30 µM |
| CC(=O)Oc1ccc(Cl)c2cccnc12 [SILITAL] | 15.6 µM | < 9.85 µM | 17.2 µM | 29.8 µM |
